Several values for one entry are separate records, joined by “and”; a condition that tells them apart may be missing. Equal values may be shown once. Numbers after ± are expanded uncertainties.
Columns and labels:
[1] = Closed cell (Static) method
[2] = molar heat capacity at constant pressure; settings: 101.33 kPa, Liquid, Thin-film microcalorimeter

CC1(C)[C@H]2CC[C@]1(C)[C@H](O)C2 [(1S-endo)-1,7,7-trimethylbicyclo[2.2.1]heptan-2-ol]
[1]
Settings	vapor or sublimation pressure
293.12 K, Crystal 2	0.001843 ± 0.0002 kPa
293.13 K, Crystal 2	0.001845 ± 0.0002 kPa and 0.001846 ± 0.0002 kPa
298.14 K, Crystal 2	0.003114 ± 0.00025 kPa and 0.003117 ± 0.00025 kPa
298.15 K, Crystal 2	0.003118 ± 0.00025 kPa
303.16 K, Crystal 2	0.005163 ± 0.00033 kPa and 0.005164 ± 0.00033 kPa
303.17 K, Crystal 2	0.005165 ± 0.00033 kPa
308.16 K, Crystal 2	0.008376 ± 0.00048 kPa
308.18 K, Crystal 2	0.008394 ± 0.00048 kPa and 0.008395 ± 0.00048 kPa
313.13 K, Crystal 2	0.01335 ± 0.0007 kPa
313.14 K, Crystal 2	0.01336 ± 0.0007 kPa and 0.01337 ± 0.0007 kPa
318.14 K, Crystal 2	0.02101 ± 0.00094 kPa and 0.02103 ± 0.00094 kPa
318.15 K, Crystal 2	0.02103 ± 0.00094 kPa
323.17 K, Crystal 2	0.03267 ± 0.0013 kPa
323.18 K, Crystal 2	0.03269 ± 0.0013 kPa
323.19 K, Crystal 2	0.03273 ± 0.0013 kPa
328.14 K, Crystal 2	0.04968 ± 0.0019 kPa and 0.04971 ± 0.0019 kPa
328.15 K, Crystal 2	0.04973 ± 0.0019 kPa
333.18 K, Crystal 2	0.07494 ± 0.0027 kPa and 0.07496 ± 0.0027 kPa and 0.07498 ± 0.0027 kPa
338.2 K, Crystal 2	0.1112 ± 0.0039 kPa
338.21 K, Crystal 2	0.1112 ± 0.0039 kPa
343.15 K, Crystal 2	0.1618 ± 0.0054 kPa and 0.1619 ± 0.0054 kPa
346.99 K, Crystal 2	0.2143 ± 0.007 kPa
347.09 K, Crystal 2	0.2157 ± 0.0071 kPa
347.1 K, Crystal 2	0.2156 ± 0.007 kPa
348.11 K, Crystal 1	0.2309 ± 0.0076 kPa and 0.2308 ± 0.0076 kPa and 0.2307 ± 0.0076 kPa
352.88 K, Crystal 1	0.3183 ± 0.01 kPa
352.89 K, Crystal 1	0.3183 ± 0.01 kPa and 0.3184 ± 0.01 kPa
357.96 K, Crystal 1	0.4417 ± 0.014 kPa and 0.4418 ± 0.014 kPa
357.97 K, Crystal 1	0.4424 ± 0.014 kPa
362.89 K, Crystal 1	0.6015 ± 0.019 kPa
362.9 K, Crystal 1	0.6015 ± 0.019 kPa
362.94 K, Crystal 1	0.6029 ± 0.019 kPa

CC(C)=CCC/C(C)=C/CO [(E)-3,7-dimethyl-2,6-octadien-1-ol]
[1], Liquid
Settings	vapor or sublimation pressure
273.65 K	0.000112 ± 0.00014 kPa and 0.000109 ± 0.00014 kPa and 0.000111 ± 0.00014 kPa
278.15 K	0.00019 ± 0.00014 kPa and 0.000192 ± 0.00014 kPa and 0.000195 ± 0.00014 kPa
283.15 K	0.000357 ± 0.00014 kPa and 0.000355 ± 0.00014 kPa and 0.000358 ± 0.00014 kPa
288.15 K	0.000641 ± 0.00015 kPa and 0.000637 ± 0.00015 kPa and 0.000639 ± 0.00015 kPa
293.11 K	0.001082 ± 0.00017 kPa
293.14 K	0.001071 ± 0.00017 kPa and 0.001079 ± 0.00017 kPa
293.15 K	0.001116 ± 0.00015 kPa and 0.001114 ± 0.00015 kPa and 0.001118 ± 0.00015 kPa
298.15 K	0.001894 ± 0.00017 kPa [middle of 6 runs]
303.15 K	0.003189 ± 0.0002 kPa and 0.003178 ± 0.0002 kPa and 0.00319 ± 0.0002 kPa
303.17 K	0.003087 ± 0.00025 kPa and 0.003101 ± 0.00025 kPa
303.18 K	0.003091 ± 0.00025 kPa
308.15 K	0.005168 ± 0.00026 kPa and 0.00517 ± 0.00026 kPa and 0.005167 ± 0.00026 kPa
308.19 K	0.005018 ± 0.00033 kPa and 0.005019 ± 0.00033 kPa and 0.005016 ± 0.00033 kPa
313.16 K	0.008035 ± 0.00046 kPa and 0.008051 ± 0.00046 kPa and 0.008055 ± 0.00046 kPa
318.16 K	0.01263 ± 0.00067 kPa and 0.01264 ± 0.00067 kPa and 0.01265 ± 0.00067 kPa
323.17 K	0.0196 ± 0.0009 kPa and 0.01965 ± 0.0009 kPa and 0.0197 ± 0.0009 kPa
328.17 K	0.03003 ± 0.0012 kPa and 0.0301 ± 0.0012 kPa
333.16 K	0.04478 ± 0.0017 kPa and 0.04499 ± 0.0017 kPa and 0.04502 ± 0.0017 kPa
338.14 K	0.06605 ± 0.0024 kPa and 0.06612 ± 0.0024 kPa and 0.06614 ± 0.0024 kPa
343.13 K	0.09605 ± 0.0034 kPa and 0.09608 ± 0.0034 kPa and 0.0961 ± 0.0034 kPa
348.1 K	0.1372 ± 0.0047 kPa and 0.1373 ± 0.0047 kPa
353.07 K	0.194 ± 0.0064 kPa and 0.1941 ± 0.0064 kPa
358.04 K	0.2693 ± 0.0087 kPa and 0.2697 ± 0.0087 kPa
362.92 K	0.3686 ± 0.012 kPa and 0.3687 ± 0.012 kPa
362.94 K	0.3684 ± 0.012 kPa

[2]
Settings	molar heat capacity at constant pressure [J/K/mol]
260.8 K	310.1 ± 3.1
265 K	313.5 ± 3.1
270 K	317.5 ± 3.2
275 K	322.2 ± 3.2
280 K	326.7 ± 3.3
285 K	331.3 ± 3.3
290 K	336.2 ± 3.4
295 K	341.3 ± 3.4
300 K	346.1 ± 3.5
305 K	350.9 ± 3.5
310 K	355.8 ± 3.6
315 K	360.7 ± 3.6
320 K	365.6 ± 3.7
325 K	370.6 ± 3.7
330 K	376.2 ± 3.8
335 K	381.1 ± 3.8
340 K	385.5 ± 3.9
345 K	389.8 ± 3.9
350 K	394.3 ± 3.9
355 K	398.6 ± 4

CC(C)=CCC[C@H](C)CCO [(S)-3,7-dimethyl-6-octen-1-ol]
[1], Liquid
Settings	vapor or sublimation pressure
273.65 K	0.000129 ± 0.00014 kPa and 0.00013 ± 0.00014 kPa and 0.000133 ± 0.00014 kPa
278.15 K	0.000231 ± 0.00014 kPa and 0.000228 ± 0.00014 kPa and 0.000235 ± 0.00014 kPa
283.15 K	0.00043 ± 0.00014 kPa and 0.000432 ± 0.00014 kPa
288.15 K	0.00077 ± 0.00015 kPa and 0.000777 ± 0.00015 kPa and 0.000779 ± 0.00015 kPa
293.15 K	0.001361 ± 0.00016 kPa and 0.001358 ± 0.00016 kPa
293.17 K	0.001319 ± 0.00018 kPa and 0.001331 ± 0.00018 kPa and 0.001328 ± 0.00018 kPa
298.15 K	0.00233 ± 0.00018 kPa and 0.002328 ± 0.00018 kPa and 0.002323 ± 0.00018 kPa
298.18 K	0.002272 ± 0.00021 kPa
298.19 K	0.00227 ± 0.00021 kPa
298.2 K	0.002271 ± 0.00021 kPa
303.15 K	0.003871 ± 0.00022 kPa and 0.003875 ± 0.00022 kPa and 0.003876 ± 0.00022 kPa
303.16 K	0.003787 ± 0.00027 kPa
303.19 K	0.003806 ± 0.00028 kPa
303.2 K	0.003795 ± 0.00028 kPa
308.15 K	0.006284 ± 0.0003 kPa and 0.006296 ± 0.0003 kPa and 0.006302 ± 0.0003 kPa
308.19 K	0.006203 ± 0.00038 kPa and 0.006213 ± 0.00038 kPa
308.21 K	0.006198 ± 0.00038 kPa
313.2 K	0.009899 ± 0.00055 kPa
313.21 K	0.009904 ± 0.00055 kPa and 0.009905 ± 0.00055 kPa
318.23 K	0.01566 ± 0.00077 kPa
318.24 K	0.01565 ± 0.00077 kPa and 0.01566 ± 0.00077 kPa
323.22 K	0.0243 ± 0.001 kPa
323.23 K	0.02431 ± 0.001 kPa
328.2 K	0.03714 ± 0.0015 kPa
328.21 K	0.03718 ± 0.0015 kPa and 0.03714 ± 0.0015 kPa
333.23 K	0.05589 ± 0.0021 kPa and 0.05585 ± 0.0021 kPa and 0.05576 ± 0.0021 kPa
338.19 K	0.08215 ± 0.003 kPa
338.2 K	0.08219 ± 0.003 kPa and 0.08218 ± 0.003 kPa
343.19 K	0.1192 ± 0.0042 kPa and 0.1193 ± 0.0042 kPa
348.14 K	0.1705 ± 0.0057 kPa
348.15 K	0.1706 ± 0.0057 kPa
353.1 K	0.2403 ± 0.0078 kPa and 0.2404 ± 0.0078 kPa
358.01 K	0.3337 ± 0.011 kPa
358.02 K	0.3345 ± 0.011 kPa and 0.3342 ± 0.011 kPa
362.97 K	0.4601 ± 0.015 kPa
362.98 K	0.4602 ± 0.015 kPa and 0.4607 ± 0.015 kPa

[2]
Settings	molar heat capacity at constant pressure [J/K/mol]
260.2 K	316.4 ± 3.2
265 K	320.7 ± 3.2
270 K	325.5 ± 3.3
275 K	330.5 ± 3.3
280 K	335.6 ± 3.4
285 K	340.9 ± 3.4
290 K	346.5 ± 3.5
295 K	352.3 ± 3.5
300 K	357.9 ± 3.6
305 K	363.6 ± 3.6
310 K	369.3 ± 3.7
315 K	375 ± 3.8
320 K	380.6 ± 3.8
325 K	386.5 ± 3.9
330 K	392.9 ± 3.9
335 K	398.8 ± 4
340 K	404 ± 4
345 K	409.2 ± 4.1
350 K	414.6 ± 4.1
355 K	420 ± 4.2

Source: the NIST ThermoML archive (doi:10.1016/j.fluid.2015.07.031)
